# Patent EP0165696A2, “Improved transdermal dosage form” (priority 1984, dated 1985)
# Assays:
# [1] = In vitro penetration of drug across cadaver skin, modified Franz diffusion cell; format: in vitro ADME, human
# Protocol: The rate of penetration and lag time are determined by studying in vitro the penetration of the drug across cadaver skin, hairless mouse skin or other suitable membrane.
# A measured portion of each of the formulations 1A-E was applied to the surface of the cadaver skin. The appearance of drug on the dermal side was monitored quantitatively over six days.
# Using formulation 2B, four skin samples from the same person were used to determine the average flux. Using formulation 2C, skin samples from four different people were used to determine the average flux.
# All formulations were gelled using 6.5 percent by weight of sodium stearate.
# A measured portion of each formulation,8A & B, was applied to the surface of the cadaver skin. The appearance of drug on the dermal side was monitored quantitatively over six days.
# [2] = Equilibrium solubility of active ingredients in solvents; format: physicochemical; conditions: organic solvent or mixture, 34 °C
# Protocol: An exact amount of saturated solution is withdrawn into a volumetric flask while maintaining temperature. The saturated solution is diluted in suitable solvent and the content of active ingredient measured by high pressure liquid chromatography or other suitable analytical method.
smiles,measurement,setting,value
C[C@]12CC[C@@H]3c4ccc(O)cc4CC[C@H]3[C@@H]1CC[C@@H]2O [17-beta-estradiol],increase in rate of penetration,"[1]; mixed solvent system compared to the pure solvents alone, cadaver skin",3 to 4 times
N=C(N)N/N=C/c1c(Cl)cccc1Cl [Guanabenz],solubility thermodynamic,"[2]; 35/65 propylene glycol/glycerine, 35/65PG/Gly",21.2 mg/mL
same,solubility thermodynamic,"[2]; 50/50 propylene glycol/glycerine, 50/50PG/Gly",29.4 mg/mL
same,solubility thermodynamic,[2]; Glycerine,7.97 mg/mL
same,solubility thermodynamic,[2]; Propylene Glycol,47 mg/mL
C#C[C@]1(O)CC[C@H]2[C@@H]3CCC4=CC(=O)CC[C@@H]4[C@H]3CC[C@@]21CC [Levo-norgestrel],rate of penetration enhanced,"[1]; levonorgestrel, by 10 weight percent of propylene glycol and glycerine combination",2.7 times
